Activity calls are given as the source filed them. No cut-off for these calls is given here. A value given as a limit tells only on which side of the number the result lay.

Experiment [1] addresses Potassium voltage-gated channel subfamily KQT member 2 (Homo sapiens) (UniProt O43526). In words: Activation of Kv7.2 (unknown origin) expressed in Xenopus oocytes assessed as effect on channel currents at 500 uM at -80 mV holding potential by two-electrode voltage clamp assay relative to control. The format is cell-based. Background: In two-electrode clamp one electrode senses voltage and the other passes current.

Experiment [2] shares this target. The experiment in a line: Activation of Kv7.2 (unknown origin) expressed in Xenopus oocytes assessed as effect on channel currents at -80 mV holding potential by two-electrode voltage clamp assay relative to control. The format is cell-based.
For experiment [3] the target is unchanged. The experiment in a line: Activation of Kv7.2 (unknown origin) expressed in Xenopus oocytes assessed as effect on channel currents at 100 uM at -80 mV holding potential by two-electrode voltage clamp assay relative to control. The format is cell-based.
Experiment [4] addresses T1, Potassium channel subfamily K member 2 (Homo sapiens) (UniProt O95069).
T1 sequence (whole entry): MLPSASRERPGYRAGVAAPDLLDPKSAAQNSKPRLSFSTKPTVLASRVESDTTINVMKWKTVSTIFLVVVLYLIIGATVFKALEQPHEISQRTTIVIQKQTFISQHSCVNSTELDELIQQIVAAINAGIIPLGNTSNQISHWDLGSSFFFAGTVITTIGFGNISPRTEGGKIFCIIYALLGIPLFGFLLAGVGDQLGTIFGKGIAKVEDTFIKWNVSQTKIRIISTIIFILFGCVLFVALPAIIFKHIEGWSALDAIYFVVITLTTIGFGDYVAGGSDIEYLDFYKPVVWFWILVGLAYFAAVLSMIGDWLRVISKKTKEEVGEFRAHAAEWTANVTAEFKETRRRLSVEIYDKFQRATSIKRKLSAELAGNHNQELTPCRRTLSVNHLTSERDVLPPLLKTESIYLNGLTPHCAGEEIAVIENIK
The experiment in a line: Inhibition of K2P2.1 (unknown origin) expressed in SGY1528 yeast cells assessed as inhibition of cell growth at 10 uM incubated for 24 hrs by alamar blue dye based assay relative to control.

Experiment [5] deals with T1, Potassium channel subfamily K member 2 (Homo sapiens). The experiment in a line: Activation of K2P2.1 (unknown origin) expressed in Xenopus oocytes assessed as effect on channel currents at -80 mV holding by two-electrode voltage clamp assay relative to control. The format is cell-based.
The target of experiment [6] is T2, Potassium channel subfamily K member 10 (Homo sapiens, UniProt P57789).
T2 sequence (P57789 whole entry): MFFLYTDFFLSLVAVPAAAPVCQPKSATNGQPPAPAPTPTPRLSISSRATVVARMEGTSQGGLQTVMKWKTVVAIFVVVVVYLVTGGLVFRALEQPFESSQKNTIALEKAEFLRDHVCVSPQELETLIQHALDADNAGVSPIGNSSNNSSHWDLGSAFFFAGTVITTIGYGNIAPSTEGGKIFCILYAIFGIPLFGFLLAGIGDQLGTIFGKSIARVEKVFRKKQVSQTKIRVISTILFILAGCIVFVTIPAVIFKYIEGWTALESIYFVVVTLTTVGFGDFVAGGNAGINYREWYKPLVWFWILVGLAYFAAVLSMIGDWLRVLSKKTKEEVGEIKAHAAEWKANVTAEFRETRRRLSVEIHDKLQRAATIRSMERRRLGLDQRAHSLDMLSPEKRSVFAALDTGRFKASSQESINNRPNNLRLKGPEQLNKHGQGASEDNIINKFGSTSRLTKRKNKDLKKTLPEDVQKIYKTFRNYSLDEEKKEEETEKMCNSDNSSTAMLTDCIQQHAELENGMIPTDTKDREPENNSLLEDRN
The experiment in a line: Activation of K2P10.1 (unknown origin) expressed in Xenopus oocytes assessed as effect on channel currents at -80 mV holding potential by two-electrode voltage clamp assay. Format: cell-based.

The target in experiment [7] is T1, Potassium channel subfamily K member 2 (Homo sapiens). The experiment in a line: Activation of K2P2.1 (unknown origin) expressed in Xenopus oocytes assessed as effect on channel currents at 500 uM at -80 mV holding potential by two-electrode voltage clamp assay. Format: cell-based.
Experiment [8] addresses Potassium channel subfamily K member 3 (Homo sapiens) (UniProt O14649). The experiment in a line: Activation of K2P3.1 (unknown origin) expressed in Xenopus oocytes assessed as effect on channel currents at -80 mV holding potential by two-electrode voltage clamp assay relative to control. The format is cell-based.
The target is the same in experiment [9]. The experiment in a line: Activation of K2P3.1 (unknown origin) expressed in Xenopus oocytes assessed as effect on channel currents at -80 mV holding potential at 500 uM by two-electrode voltage clamp assay relative to control. The format is cell-based.
The target of experiment [10] is T1, Potassium channel subfamily K member 2 (Homo sapiens). The experiment in a line: Activation of K2P2.1 (unknown origin) expressed in Xenopus oocytes assessed as effect on channel currents at 200 uM at -80 mV holding potential by two-electrode voltage clamp assay. The format is cell-based.
For another experiment, the species on record is Homo sapiens. In words: Selectivity index, ratio of IC50 for inhibition of Trk1p (unknown origin) expressed in SGY1528 yeast cells assessed as inhibition of cell growth by alamar blue dye based assay to IC50 for inhibition of K2P2.1 (unknown origin) expressed in SGY1528 yeast cells assessed as inhibition of cell growth by alamar blue dye based assay. A general note: The colour change of resazurin is a common sign of viable cells or microbes.

Experiment [11] concerns the target T1, Potassium channel subfamily K member 2 (Homo sapiens). The experiment in a line: Activation of K2P2.1 (unknown origin) expressed in Xenopus oocytes assessed as effect on channel currents at +40 mV holding potential at 400 uM by two-electrode voltage clamp assay. Format: cell-based.
In experiment [12] the target is T3, Potassium channel subfamily K member 10 (Homo sapiens) (UniProt P57789).
T3 sequence (whole entry): T2 sequence (P57789 whole entry)
The experiment in a line: Activation of K2P10.1 (unknown origin) expressed in Xenopus oocytes assessed as effect on channel currents at 500 uM at -80 mV holding potential by two-electrode voltage clamp assay. The format is cell-based.

The target of experiment [13] is T1, Potassium channel subfamily K member 2 (Homo sapiens). The experiment in a line: Reversible activation of K2P2.1 (unknown origin) expressed in Xenopus oocytes assessed as effect on channel currents at 100 uM at -80 mV holding potential by two-electrode voltage clamp assay relative to control. The format is cell-based.
Experiment [14] has the same target. In words: Activation of K2P2.1 (unknown origin) expressed in Xenopus oocytes assessed as effect on channel currents at +40 mV holding potential at 100 uM by two-electrode voltage clamp assay. Format: cell-based.
For experiment [15] the target is unchanged. In words: Inhibition of K2P2.1 (unknown origin) expressed in Xenopus oocytes assessed as effect on channel currents at -80 mV holding potential at 100 uM by two-electrode voltage clamp assay relative to control. Format: cell-based.
The target is the same in experiment [16]. The experiment in a line: Antagonist activity at K2P2.1 (unknown origin) expressed in Xenopus oocytes assessed as suppression of channel currents at 20 uM at -80 mV holding potential by two-electrode voltage clamp assay relative to control. The format is cell-based.
Experiment [17] concerns the target T4, Potassium channel subfamily K member 2 (Homo sapiens, UniProt O95069).
T4 sequence (O95069 whole entry): T1 sequence (whole entry)
In words: Inhibition of K2P2.1 (unknown origin) expressed in Xenopus oocytes assessed as effect on channel currents at -80 mV holding potential by two-electrode voltage clamp assay. The format is cell-based.

Potassium voltage-gated channel subfamily KQT member 2 (Homo sapiens), sequence (O43526 whole entry): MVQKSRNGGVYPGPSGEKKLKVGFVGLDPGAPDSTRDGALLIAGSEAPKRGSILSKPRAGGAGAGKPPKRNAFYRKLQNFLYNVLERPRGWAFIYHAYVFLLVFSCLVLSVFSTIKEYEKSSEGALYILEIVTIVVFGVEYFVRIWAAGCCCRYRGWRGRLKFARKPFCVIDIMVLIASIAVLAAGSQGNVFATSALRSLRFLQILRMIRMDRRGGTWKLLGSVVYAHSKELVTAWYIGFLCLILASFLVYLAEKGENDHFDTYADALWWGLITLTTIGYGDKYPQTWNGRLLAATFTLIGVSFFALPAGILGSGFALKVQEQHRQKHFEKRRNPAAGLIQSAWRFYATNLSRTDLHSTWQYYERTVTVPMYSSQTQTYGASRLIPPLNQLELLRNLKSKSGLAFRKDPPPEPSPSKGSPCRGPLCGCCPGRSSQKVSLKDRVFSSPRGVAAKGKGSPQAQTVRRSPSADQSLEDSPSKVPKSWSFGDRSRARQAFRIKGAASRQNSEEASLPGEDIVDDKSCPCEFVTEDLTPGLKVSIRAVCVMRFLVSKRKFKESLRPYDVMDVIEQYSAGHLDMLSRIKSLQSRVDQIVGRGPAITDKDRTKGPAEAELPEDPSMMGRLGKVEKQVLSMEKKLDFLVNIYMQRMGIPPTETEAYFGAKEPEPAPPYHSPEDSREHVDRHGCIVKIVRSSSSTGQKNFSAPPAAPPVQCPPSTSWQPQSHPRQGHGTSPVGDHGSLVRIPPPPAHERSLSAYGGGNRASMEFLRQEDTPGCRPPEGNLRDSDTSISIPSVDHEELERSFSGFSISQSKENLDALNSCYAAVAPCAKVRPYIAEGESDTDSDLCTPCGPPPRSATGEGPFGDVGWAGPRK
Potassium channel subfamily K member 3 (Homo sapiens), sequence (O14649 whole entry, looked up): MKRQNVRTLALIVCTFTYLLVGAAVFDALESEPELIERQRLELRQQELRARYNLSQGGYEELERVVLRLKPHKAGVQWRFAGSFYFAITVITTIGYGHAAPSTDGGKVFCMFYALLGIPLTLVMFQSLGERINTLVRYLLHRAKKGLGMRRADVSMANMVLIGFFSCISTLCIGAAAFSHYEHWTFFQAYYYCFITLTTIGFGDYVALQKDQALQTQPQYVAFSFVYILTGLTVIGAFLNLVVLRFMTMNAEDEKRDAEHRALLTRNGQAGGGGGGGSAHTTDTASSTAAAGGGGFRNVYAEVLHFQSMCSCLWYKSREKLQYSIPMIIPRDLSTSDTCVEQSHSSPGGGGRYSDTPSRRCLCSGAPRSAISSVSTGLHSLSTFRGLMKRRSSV

In general, EC50 refers to the concentration at which the effect is half-maximal. As for `O=C(O)CCn1c2ccc(Cl)cc2c2cc(Cl)ccc21`, the Emax in experiment [1] stood at 1.8; in experiment [5] it was 11; in experiment [9], 1.2; in [12] it was 10.1. The result in experiment [2], in experiment [3] and in experiment [8] was inactive. Further, the growth inhibition (GI) in experiment [4] amounted to 66%. Moreover, the EC50 in [6] was ≥ 250 µM. Also, the result in experiment [7], in [10] and in experiment [11] was Active. For the same compound, in the experiment listed under Homo sapiens, the Ratio IC50 is < 2. In experiment [13], the fold change (FC) is < 11.
What is called inhibition is the share of the control response that was lost under treatment. As usually defined, the IC50 is the midpoint of a concentration-inhibition curve. With `Cc1cccc(-n2ncc3c(NCCc4ccccc4)ncnc32)c1`, the result in experiment [14] was Active. Also, the growth inhibition (GI) in experiment [4] turned out to be 66%. The inhibition worked out at 70% in experiment [15] and 30% in experiment [16]. In addition, the IC50 in experiment [17] came out at 21 µM. Moreover, the Ratio IC50 in the experiment listed under Homo sapiens was < 2.

The record behind these values is ChEMBL document CHEMBL4421719, “Modulation of k2p channels” (2016).
